Counter-ions that a name gives are not always drawn. Like-named read-outs stand apart in the source and are kept apart here.
Tests used:
[1] = reported in The New England Journal of Medicine, 286, 808-812 (1972); cited from earlier work
complement system = settings: reported in the literature; cited from earlier work
whole complement = test: In vivo complement inhibition in guinea pigs (serum whole complement, capillary tube assay); settings: Cavia porcellus, ip, guinea pig, intraperitoneal
From the text: An active inhibitor protects C2 from C1 and C4; (ii) Test, Code 035 (C3-C9 inhibitor -- This test determines the ability of the late components of human complement (C3-C9) to lyse EAC 142 in the presence of appropriate dilutions of the test compound. An active inhibitor protects EAC 142 from lysis by human C3-C9; (iii) Test, Code 036 (C-Shunt inhibitor) -- In this test human erythrocytes rendered fragile are lysed in autologous serum via the shunt pathway activated by cobra venom factor in the presence of appropriate dilutions of the test compound. Inhibition of the shunt pathway results in failure of lysis; (iv) Forssman Vasculitis Test -- Here, the well known complement dependent lesion, Forssman vasculitis, is produced in guinea pigs by intradermal injection of rabbit anti-Forssman antiserum. The lesion is measured in terms of diameter, edema and hemorrhage and the extent to which a combined index of these is inhibited by prior intraperitoneal injection of the test compound at 200 mg/kg is then reported, unless otherwise stated; (v) Forssman Shock Test -- Lethal shock is produced in guinea pigs by an i.v. injection of anti-Forssman antiserum and the harmonic mean death time of treated guinea pigs is compared with that of simultaneous controls; (vi) Complement Level Reduction Test -- In this test, the above dosed guinea pigs, or others, are bled for serum and the complement level is determined in undiluted serum by the capillary tube method of U.S. Pat. No. 3,876,376 and compared to undosed control guinea pigs; and (vii) Cap 50 Test -- Here, appropriate amounts of the test compound are added to a pool of guinea pig serum in vitro, after which the undiluted serum capillary tube assay referred to above is run. The concentration of compound inhibiting 50% is reported.
(§1) With reference to Table I, guinea pigs weighing about 300 g were dosed intravenously (i.v.) or intraperitoneally (i.p.) with 200 mg/kg of the test compound dissolved in saline and adjusted to pH 7-8. […] Percent inhibition was calculated by comparison with simultaneous controls. […]

shunt pathway = test: Test, Code 036 (C-Shunt inhibitor); type: cell-based, human; settings: activity in wells, two-fold serial dilution assay; higher well number indicates higher activity
From the text: (§2) An active inhibitor protects C2 from C1 and C4; (ii) Test, Code 035 (C3-C9 inhibitor -- This test determines the ability of the late components of human complement (C3-C9) to lyse EAC 142 in the presence of appropriate dilutions of the test compound. An active inhibitor protects EAC 142 from lysis by human C3-C9; (iii) Test, Code 036 (C-Shunt inhibitor) -- In this test human erythrocytes rendered fragile are lysed in autologous serum via the shunt pathway activated by cobra venom factor in the presence of appropriate dilutions of the test compound. Inhibition of the shunt pathway results in failure of lysis; (iv) Forssman Vasculitis Test -- Here, the well known complement dependent lesion, Forssman vasculitis, is produced in guinea pigs by intradermal injection of rabbit anti-Forssman antiserum. […]
as §1

human C1 = test: Test, Code 026 (C1 inhibitor); type: biochemical; settings: activity in wells, two-fold serial dilution assay; higher well number indicates higher activity
From the text: as §2, §1

[2] = system: late components of human complement (C3-C9); test: Test, Code 035 (C3-C9 inhibitor; C-Late); type: cell-based; settings: activity in wells, two-fold serial dilution assay; higher well number indicates higher activity
From the text: as §2, §1

Compound	treatment of hereditary angioneurotic edema [1]	anticomplementary effect / complement inhibition (complement system)	also measured
NCCCCCC(=O)O [epsilon-aminocaproic acid]	used with success in the treatment of hereditary angioneurotic edema		
8-(3-benzamido-4-methylbenzamido)naphthalene-1,3,5-trisulfonic acid [Suramin]	used with success in the treatment of hereditary angioneurotic edema	competitive inhibitor of the complement system	
heparin		anticomplementary effect	
O=S(=O)(O)c1cc(NC(=S)Nc2cc(S(=O)(=O)O)c3cc(NC(=S)Nc4cc(S(=O)(=O)O)cc5cc(S(=O)(=O)O)cc(S(=O)(=O)O)c45)cc(S(=O)(=O)O)c3c2)c2c(S(=O)(=O)O)cc(S(=O)(=O)O)cc2c1 [8,8'-[4,8-Disulfo-2,6-naphthylenebis(2-thioureylene)]-di-1,3,6-naphthalenetrisulfonic acid octasodium salt]			inhibition at 200 mg/kg (whole complement; 0.5 h, 30 minutes, read-out: In Vivo Activity (Guinea Pig) % Inhibition, Intraperitoneal, 30 minutes): -86%; inhibition at 200 mg/kg (whole complement; 1 h, 60 minutes, read-out: In Vivo Activity (Guinea Pig) % Inhibition, Intraperitoneal, 60 minutes): -84%; inhibition at 200 mg/kg (whole complement; 2 h, 120 minutes, read-out: In Vivo Activity (Guinea Pig) % Inhibition, Intraperitoneal, 120 minutes): -93%; Shunt Inhibition 036 Wells (shunt pathway): +2 Wells; Cl 026 Wells (human C1): +5 Wells; C-Late 035 Wells [2]: +2 Wells
NC[C@H]1CC[C@H](C(=O)O)CC1 [tranexamic acid]	used with success in the treatment of hereditary angioneurotic edema		
Nc1ccc2cc(S(=O)(=O)O)cc(O)c2c1N=Nc1ccc(NC(=O)Nc2ccc(N=Nc3c(N)ccc4cc(S(=O)(=O)O)cc(O)c34)c(S(=O)(=O)O)c2)cc1S(=O)(=O)O [chlorazol fast pink, 3,3'-ureylenebis-[6-(2-amino-8-hydroxy-6-sulfo-1-naphthylazo)]benzenesulfonic acid, tetrasodium salt]		anticomplementary effect	

From patent US4120892A, “Anionic naphthalene thioureido naphthalene sulfonic acids” (American Cyanamid Company, priority 1977, dated 1978)
